We go through four compounds from article PMC12388904, “Hypoglycemic Effects of Silphium perfoliatum L. In Vitro and In Vivo and Its Active Composition Identification by UPLC-Triple-TOF-MS/MS” (Pharmaceuticals, 2025).

One experiment concerns the target sucrase (Rattus norvegicus, UniProt P23739). As to the kind of experiment: In vitro sucrase inhibition (rat intestinal mucosa α-glucosidase, glucose assay kit).
The target in the next experiment is maltase. In words: In vitro maltase inhibition (rat intestinal mucosa α-glucosidase, glucose assay kit). Conditions: for IC50 on maltase: Figure 4C, same IC50 in mass units, in brackets; for IC50: read-out: IC50 against maltase, Figure 4.
Experiment [1] has as its system diabetic mice. In words: Maltose tolerance test, PBG detection in alloxan-induced diabetic mice. Type of experiment: in vivo. Conditions: maltose 3 g/kg oral, compared to model group. The method, then: (§1) PBG detection in diabetic mice adhered to the protocol previously established by our group. After 12-h fasting, hyperglycemia was induced by tail vein injection of alloxan at a dose of 60 mg/kg. Fasting blood glucose was measured 72 h post-induction. Mice with blood glucose levels of 180–360 mg/dL were considered diabetic and randomized into five groups (n = 8/group): Model (sucrose 3 g/kg); […] SP-10 L (sucrose 3 g/kg + SP-10 5 mg/kg); SP-10 M (sucrose 3 g/kg + SP-10 10 mg/kg) and SP-10 H (sucrose 3 g/kg + SP-10 20 mg/kg). Blood glucose was measured pre-gavage and at 30, 60, and 120 min post-gavage. Data was recorded and analyzed for PBG and AUC using Graphpad Prism 9.5.1. Maltose and starch experiments used identical designs.

For experiment [2], the system named is diabetic mice. In words: Sucrose tolerance test, PBG detection in alloxan-induced diabetic mice. As to conditions: sucrose 3 g/kg oral, acarbose 6 mg/kg. Type of experiment: in vivo. The method, then: as §1
In experiment [3] the test system is diabetic mice. In words: Starch tolerance test, PBG detection in alloxan-induced diabetic mice. Type of experiment: in vivo. Conditions: starch 3 g/kg oral, acarbose 6 mg/kg, compared to model group. How it is done:
as §1

Where [4] appears, read: IC50 against sucrase, Figure 4, sucrose 50 mmol/L, 37 °C, 20 min.
Setting [5] is: IC50 on sucrase, Figure 4D, same IC50 in mass units, in brackets.
[6] abbreviates: maltose 1 mmol/L, 37 °C, 20 min.
The mark [7] stands for this setting: SP-10 10 and 20 mg/kg, compared to model group.

In brackets after ≈: the same amount, converted by molar mass.

sucrase, sequence (P23739 whole entry): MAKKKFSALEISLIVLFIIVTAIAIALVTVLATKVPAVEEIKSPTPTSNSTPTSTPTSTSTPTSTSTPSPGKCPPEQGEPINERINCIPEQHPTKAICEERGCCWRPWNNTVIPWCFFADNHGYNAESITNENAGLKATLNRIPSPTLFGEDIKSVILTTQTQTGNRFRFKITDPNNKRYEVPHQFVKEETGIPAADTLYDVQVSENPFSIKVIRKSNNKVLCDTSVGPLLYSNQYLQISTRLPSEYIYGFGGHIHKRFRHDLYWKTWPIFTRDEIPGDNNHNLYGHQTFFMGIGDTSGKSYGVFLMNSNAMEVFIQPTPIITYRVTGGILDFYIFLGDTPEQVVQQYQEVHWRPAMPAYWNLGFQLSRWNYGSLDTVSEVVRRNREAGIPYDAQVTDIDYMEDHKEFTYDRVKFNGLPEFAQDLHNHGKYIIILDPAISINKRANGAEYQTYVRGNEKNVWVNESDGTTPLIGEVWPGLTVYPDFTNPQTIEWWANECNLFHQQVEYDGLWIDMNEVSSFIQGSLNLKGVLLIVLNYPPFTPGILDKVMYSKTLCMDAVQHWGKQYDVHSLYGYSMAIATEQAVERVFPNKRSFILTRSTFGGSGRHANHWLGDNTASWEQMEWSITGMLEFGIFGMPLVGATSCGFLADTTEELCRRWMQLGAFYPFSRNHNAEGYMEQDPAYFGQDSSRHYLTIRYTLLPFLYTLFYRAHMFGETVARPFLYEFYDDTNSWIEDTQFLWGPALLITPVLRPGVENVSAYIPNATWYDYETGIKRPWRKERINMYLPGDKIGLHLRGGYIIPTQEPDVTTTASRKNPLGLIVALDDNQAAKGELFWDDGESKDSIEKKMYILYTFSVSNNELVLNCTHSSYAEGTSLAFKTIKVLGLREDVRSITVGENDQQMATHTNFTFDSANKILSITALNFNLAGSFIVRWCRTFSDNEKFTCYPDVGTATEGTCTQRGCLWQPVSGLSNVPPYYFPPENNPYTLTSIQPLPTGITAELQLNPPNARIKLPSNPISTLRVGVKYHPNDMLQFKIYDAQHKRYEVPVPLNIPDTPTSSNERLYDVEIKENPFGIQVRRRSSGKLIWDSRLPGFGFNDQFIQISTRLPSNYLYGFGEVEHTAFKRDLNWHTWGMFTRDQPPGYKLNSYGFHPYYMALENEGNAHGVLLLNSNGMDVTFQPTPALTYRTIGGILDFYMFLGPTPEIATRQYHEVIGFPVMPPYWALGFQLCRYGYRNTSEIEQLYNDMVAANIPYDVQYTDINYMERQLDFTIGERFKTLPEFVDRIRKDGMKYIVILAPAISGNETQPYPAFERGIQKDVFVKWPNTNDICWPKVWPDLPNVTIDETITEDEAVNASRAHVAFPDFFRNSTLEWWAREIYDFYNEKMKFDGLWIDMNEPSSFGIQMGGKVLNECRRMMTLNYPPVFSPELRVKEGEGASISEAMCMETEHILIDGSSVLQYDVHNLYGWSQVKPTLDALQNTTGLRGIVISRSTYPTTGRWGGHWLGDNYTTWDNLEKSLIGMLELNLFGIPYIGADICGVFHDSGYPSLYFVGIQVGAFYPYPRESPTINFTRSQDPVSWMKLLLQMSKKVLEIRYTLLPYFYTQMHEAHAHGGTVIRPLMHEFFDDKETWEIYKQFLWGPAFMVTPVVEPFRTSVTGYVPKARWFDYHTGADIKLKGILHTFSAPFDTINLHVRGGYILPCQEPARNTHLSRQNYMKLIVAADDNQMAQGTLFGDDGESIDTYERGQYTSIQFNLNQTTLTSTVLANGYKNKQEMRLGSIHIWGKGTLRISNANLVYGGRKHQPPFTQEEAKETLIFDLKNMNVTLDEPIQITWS
Description for maltase: (§2) The α-Glucosidase preparation and inhibitory activity evaluation followed established laboratory protocols [41]. After overnight fasting, rats were humanely euthanized according to approved ethical guidelines. Small intestinal segments were immediately excised and placed on ice to preserve enzymatic activity. Following longitudinal dissection, the luminal surface was rinsed three times with pre-chilled PBS (0.1 M, pH 7.4), and mucosa was scraped using sterile slides. The mucosal tissue was subsequently dissolved in cold PBS (1:5 m/v), centrifuged (8000 rpm, 4 °C, 4 min), and the supernatant was snap-frozen in liquid nitrogen for storage at −80 °C.
(§3) After shaking, 50 μL of maltase (11.32 U/mL) or sucrase (15.26 U/mL) was added and incubated at 37 °C for 20 min with oscillation. Reactions were terminated by heating at 95 °C for 15 min. Glucose production was quantified using a glucose assay kit, and IC50 values were calculated with GraphPad Prism 9.5.1.
Description for sucrase: as §2, §3

For `O=C(/C=C/c1ccc(O)c(O)c1)O[C@@H]1C[C@](O)(C(=O)O)C[C@@H](O)[C@H]1O` [CGA, chlorogenic acid], the “IC50 against sucrase, fold higher relative to acarbose” value against sucrase worked out at 210 fold. In addition, the IC50 at sucrase (setting [4]) was 126 µM; against sucrase (setting [5]) it was 126 µM; at maltase (setting [6]) it was 115 µM. The IC50 on maltase against maltase worked out at 40.60 µg/mL (≈ 115 µM).
For the compound `O=C(C=Cc1ccc(O)c(O)c1)OC1C(O)CC(O)(C(=O)O)CC1O` (centres unmarked) [CCGA, cryptochlorogenic acid], the IC50 against sucrase (setting [4]) is 110 µM; against sucrase (setting [5]), 110 µM; at maltase (setting [6]), 109 µM. At maltase, this compound showed an IC50 on maltase of 38.47 µg/mL (≈ 109 µM).
For the compound `O=C(C=Cc1ccc(O)c(O)c1)OC1CC(O)(C(=O)O)CC(O)C1O` (centres unmarked) [NCGA, neochlorogenic acid], the “IC50 against sucrase, fold higher relative to acarbose” value against sucrase came to 215 fold. Besides, the IC50 against sucrase (setting [4]) was 130 µM; against sucrase (setting [5]), 129 µM; on maltase (setting [6]), 87.7 µM. Further, the IC50 on maltase against maltase stood at 31.07 µg/mL (≈ 87.7 µM).
With `C[C@H]1O[C@H](O[C@H]2[C@H](O)[C@@H](O)[C@@H](O[C@H]3[C@H](O)[C@@H](O)C(O)O[C@@H]3CO)O[C@@H]2CO)[C@H](O)[C@@H](O)[C@@H]1N[C@H]1C=C(CO)[C@@H](O)[C@H](O)[C@H]1O` (some centres unmarked) [acarbose, Acarbose], the “PBG levels at 30 and 60 min” value in the experiment with diabetic mice [1] (all three SP-10 groups (5, 10, 20 mg/kg), acarbose 6 mg/kg) was “lower PBG levels at 30 and 60 min, although these differences were not statistically significant”. Moreover, the “PBG levels at 120 min” value with diabetic mice [1] (all treatment groups (SP-10 5, 10, 20 mg/kg, acarbose 6 mg/kg)) was “statistically significant reductions”. Besides, the “IC50 for maltase inhibition” value against maltase (Figure 1, maltose 1 mmol/L, 37 °C, 20 min) stood at 0.168 µg/mL. Also, the IC50 at maltase (setting [6]) came out at 0.26 µM. In the experiment on diabetic mice [2] (setting [7]), the “Blood glucose AUC (0–120 min)” value is listed as “significantly lower” and the “PBG levels at 30 min” value is listed as “significant attenuation”. Also, the “Glycemic levels by 120 min” value in the experiment with diabetic mice [2] (SP-10 H 20 mg/kg) is given as “restored glycemic levels to preprandial values”. In addition, the “PBG levels at all measured time points” value in the experiment on diabetic mice [3] (SP-10 H 20 mg/kg) is reported as “significantly reduced”. Besides, the “AUC levels (0–120 min)” value in the experiment on diabetic mice [3] (SP-10 M 10 mg/kg and SP-10 H 20 mg/kg) is “markedly decreased”.

For orientation: IC50 means the point on the concentration scale where inhibition reaches its midpoint.
